Five compounds from patent publication US6043263A, “(2,3-dihydrobenzofuranyl)-thiazoles as phosphodiesterase inhibitors” (Byk Gulden Lomberg Chemische Fabrik GmbH, priority 1996, dated 2000) can be followed below.

Structures can show the parent of a compound that is named as a salt.

The experiment deals with PDE IV. Kind of experiment: Inhibition of PDE IV activity. Type of experiment: biochemical. The conditions noted are these: method of Bauer and Schwabe adapted to microtiter plates. The protocol: The activity test was carried out according to the method of Bauer and Schwabe, which was adapted to microtiter plates (Naunyn-Schmiedeberg's Arch. Pharmacol. 311, 193-198, 1980). In this test, the PDE reaction takes place in the first step. In a second step, the charged 5'-nucleotide is cleaved to give the uncharge nucleoside by a 5'-nucleotidase of the snake veno of Ophiophagus hannah (king cobra). In the third step, the nucleoside is separated from the remaining charged substrate on ion exchange columns. The columns are eluted directly into minivials using 2 ml of 30 mM ammonium formate (pH 6.0) to which a further 2 ml of scintillator fluid is added for counting.
The inhibitory values determined for the compounds according to the invention result from Table 1 which follows, in which the numbers of the compounds correspond to the numbers of the examples.
Turning to `COc1ccc(-c2csc(-c3cccnc3)n2)c2c1OC1(CCCC1)C2` [Compound 1, 3-[4-(2,3-Dihydro-7-methoxybenzofuran-2-spiro-1'-cyclopentan-4-yl)thiazol-2-yl]pyridine], the “-log IC50” value came to 7.74.
Consider `COc1ccc(-c2csc(-c3ccncc3)n2)c2c1OC1(CCCC1)C2` [Compound 2, 4-[4-(2,3-Dihydro-7-methoxybenzofuran-2-spiro-1'-cyclopentan-4-yl)thiazol-2-yl]pyridine], for which the “-log IC50” value is listed as 7.25.
As to `CCOC(=O)c1cc(-c2nc(-c3ccc(OC)c4c3CC3(CCCC3)O4)cs2)ccn1` [Compound 3, Ethyl 4-[4-(2,3-Dihydro-7-methoxybenzofuran-2-spiro-1'-cyclopentan-4-yl)thiazol-2-yl]pyridine-2-carboxylate], the “-log IC50” value is 7.22.
As to `COc1ccc(-c2csc(-c3ccnc(C(=O)O)c3)n2)c2c1OC1(CCCC1)C2` [Compound 4, 4-[4-(2,3-Dihydro-7-methoxybenzofuran-2-spiro-1'-cyclopentan-4-yl)thiazol-2-yl]pyridine-2-carboxylic acid semihydrochloride], the “-log IC50” value is listed as 6.85.
In the case of `COc1ccc(-c2csc(-c3cccc(C(=O)O)c3)n2)c2c1OC1(CCCC1)C2` [Compound 5, 3-[4-(2,3-Dihydro-7-methoxybenzofuran-2-spiro-1'-cyclopentan-4-yl)thiazol-2-yl]benzoic acid] it was 7.79.
